Measured values as given in ChEMBL document CHEMBL4665869, “New thiazolopyrimidine as anticancer agents: Synthesis, biological evaluation, DNA binding, molecular modeling and ADMET study” (Bioorg Med Chem Lett, 2020).
Converted amounts (≈) assume the structure as drawn.

Columns and labels:
OVCAR-8 = test: Growth inhibition of human OVCAR-8 cells at 10 uM relative to control; type: functional; conditions: read-out: GI
MDA-MB-435 = test: Growth inhibition of human MDA-MB-435 cells at 10 uM relative to control; type: functional; conditions: read-out: GI
OVCAR-5 = test: Growth inhibition of human OVCAR-5 cells at 10 uM relative to control; type: functional; conditions: read-out: GI
DNA = test: Displacement of methyl green from DNA (unknown origin) assessed as DNA intercalation after 24 hrs by colorimetric assay; type: nucleic-acid assay
SF-539 = test: Growth inhibition of human SF-539 cells at 10 uM relative to control; type: functional; conditions: read-out: GI
RXF 393 = test: Growth inhibition of human RXF 393 cells at 10 uM relative to control; type: functional; conditions: read-out: GI
NCI-H322M = test: Growth inhibition of human NCI-H322M cells at 10 uM relative to control; type: functional; conditions: read-out: GI
K562 = test: Growth inhibition of human K562 cells at 10 uM relative to control; type: functional; conditions: read-out: GI
BT-549 = test: Growth inhibition of human BT-549 cells at 10 uM relative to control; type: functional; conditions: read-out: GI
NCI-H522 = test: Growth inhibition of human NCI-H522 cells at 10 uM relative to control; type: functional; conditions: read-out: GI
CAKI-1 = test: Growth inhibition of human CAKI-1 cells at 10 uM relative to control; type: functional; conditions: read-out: GI
OVCAR-4 = test: Growth inhibition of human OVCAR-4 cells at 10 uM relative to control; type: functional; conditions: read-out: GI
SNB-75 = test: Growth inhibition of human SNB-75 cells at 10 uM relative to control; type: functional; conditions: read-out: GI
SK-MEL-5 = test: Growth inhibition of human SK-MEL-5 cells at 10 uM relative to control; type: functional; conditions: read-out: GI
LOX IMVI = test: Growth inhibition of human LOX IMVI cells at 10 uM relative to control; type: functional; conditions: read-out: GI
NCI-H460 = test: Growth inhibition of human NCI-H460 cells at 10 uM relative to control; type: functional; conditions: read-out: GI
HL-60(TB) = test: Growth inhibition of human HL-60(TB) cells at 10 uM relative to control; type: functional; conditions: read-out: GI
PC-3 = test: Growth inhibition of human PC-3 cells at 10 uM relative to control; type: functional; conditions: read-out: GI
HCT-15 = test: Growth inhibition of human HCT-15 cells at 10 uM relative to control; type: functional; conditions: read-out: GI
HCT-116 = test: Growth inhibition of human HCT-116 cells at 10 uM relative to control; type: functional; conditions: read-out: GI
T47D = test: Growth inhibition of human T47D cells at 10 uM relative to control; type: functional; conditions: read-out: GI
TK-10 = test: Growth inhibition of human TK-10 cells at 10 uM relative to control; type: functional; conditions: read-out: GI
SF-268 = test: Growth inhibition of human SF-268 cells at 10 uM relative to control; type: functional; conditions: read-out: GI
NCI/ADR-RES = test: Growth inhibition of human NCI/ADR-RES cells at 10 uM relative to control; type: functional; conditions: read-out: GI
SW-620 = test: Growth inhibition of human SW-620 cells at 10 uM relative to control; type: functional; conditions: read-out: GI
SR = test: Growth inhibition of human SR cells at 10 uM relative to control; type: functional; conditions: read-out: GI
SK-MEL-2 = test: Growth inhibition of human SK-MEL-2 cells at 10 uM relative to control; type: functional; conditions: read-out: GI
NCI-H226 = test: Growth inhibition of human NCI-H226 cells at 10 uM relative to control; type: functional; conditions: read-out: GI
UO-31 = test: Growth inhibition of human UO-31 cells at 10 uM relative to control; type: functional; conditions: read-out: GI
SK-MEL-28 = test: Growth inhibition of human SK-MEL-28 cells at 10 uM relative to control; type: functional; conditions: read-out: GI

CCOC(=O)C1=CSC2=NC(/C=C/c3ccc(OC)c(OC)c3)=CC(c3ccc(OC)c(OC)c3)N12 (stereo not given)
inhibition of growth at 10 µM (OVCAR-8): < 10% | inhibition of growth at 10 µM (MDA-MB-435): < 10% | inhibition of growth at 10 µM (OVCAR-5): < 10% | IC50 (DNA): 29.86 µg/mL (≈ 58.7 µM) | inhibition of growth at 10 µM (SF-539): < 10% | inhibition of growth at 10 µM (RXF 393): < 10% | inhibition of growth at 10 µM (NCI-H322M): < 10% | inhibition of growth at 10 µM (K562): < 10% | inhibition of growth at 10 µM (BT-549): < 10% | inhibition of growth at 10 µM (NCI-H522): 12% | inhibition of growth at 10 µM (CAKI-1): < 10% | inhibition of growth at 10 µM (OVCAR-4): < 10% | inhibition of growth at 10 µM (SNB-75): 25.3% | inhibition of growth at 10 µM (SK-MEL-5): < 10% | inhibition of growth at 10 µM (LOX IMVI): < 10% | inhibition of growth at 10 µM (NCI-H460): < 10% | inhibition of growth at 10 µM (HL-60(TB)): < 10% | inhibition of growth at 10 µM (PC-3): 11.3% | inhibition of growth at 10 µM (HCT-15): < 10% | inhibition of growth at 10 µM (HCT-116): < 10% | inhibition of growth at 10 µM (T47D): < 10% | inhibition of growth at 10 µM (TK-10): < 10% | inhibition of growth at 10 µM (SF-268): < 10% | inhibition of growth at 10 µM (NCI/ADR-RES): < 10% | inhibition of growth at 10 µM (SW-620): < 10% | inhibition of growth at 10 µM (SR): < 10% | inhibition of growth at 10 µM (SK-MEL-2): < 10% | inhibition of growth at 10 µM (NCI-H226): < 10% | inhibition of growth at 10 µM (UO-31): 20.2% | inhibition of growth at 10 µM (SK-MEL-28): < 10%
